According to patent publication US20140212949A1, “METHOD FOR PREPARING MICROVESICULAR ADAM15” (INDUSTRY-ACADEMIC COOPERATION FOUNDATION, YONSEI UNIVERSITY, priority 2011, published 2014):

Tests used:
Type in all cases: cell-based, human
HEK293F cells = assay: Exosomal ADAM15 enrichment in transfected HEK293F cells (immunoblotting); conditions: 5 ng/Ml PMA for 24 h
Procedure: FIG. 3 verifies that ADAM15-rich exosomes have a high binding affinity for integrin αvβ3 and prevents interactions between integrin αvβ3 and vitronectin. […] FIGS. 3B and 3C show immunoblotting analysis. Prior to exosome isolation, transfected cells were stimulated with or without 5 ng/Ml PMA for 24 h, and the isolated exosomes were analyzed by immunoblotting analysis with the indicated antibodies. The exosomes were incubated with purified integrin αvβ3 (FIG. 3B) or α5β1 (FIG. 3C), followed by ultracentrifugation. The precipitates were analyzed by immunoblotting analysis. In the graphs, the immunoblotting results are represented by the relative intensity. […] Exosomes were incubated with purified integrin αvβ3 on a vitronectin-coated plate, and bound integrins were detected by anti-integrin αvβ3 antibody. […] After 2-h incubation, the number of bound cells was determined by MTT assay (OD: 540 nm). […]
(§1) Cells were incubated with or without PMA in serum-free medium or medium containing 5% FBS for 24 h. […] Protein concentration was measured by a modified Bradford assay (Bio-Rad Laboratories, Hercules, Calif.). […] The tubes were then ultracentrifuged at 100,000×g for 2.5 h in a Beckman SW 55 Ti rotor, and fractions with different densities were sequentially collected from the top of the tube and analyzed for exosomes containing ADAM15.

MCF-7 cells [1] = assay: Semi-quantitative RT-PCR analysis of ADAM15 mRNA in MCF-7 cells; conditions: 5 ng/Ml PMA for the indicated times
THP-1 cells = assay: Release of exosomal ADAM15 from THP-1 cells; conditions: THP-1 cells incubated with PMA in serum-free medium for 24 h
Procedure: (§2) FIG. 9 verifies that the release of exosomal ADAM15 is further induced by LPS stimulation in differentiated THP-1 macrophages. […] THP-1 cells were incubated with PMA in serum-free medium for 24 h. Arrows indicate pro-ADAM15 and mature ADAM15, respectively. Total protein bands of exosomes were shown by Coomassie blue staining (middle penal). In the graph of the right panel, data are represented as the mean±standard deviation of three experiments. […] PMA-differentiated THP-1 cells were washed with PBS and further cultured for 2˜3 days. THP-1 macrophages were incubated with LPS in serum-free medium for 18 h. Exosomes were isolated from conditioned media. Arrows indicate pro-ADAM15 and mature ADAM15, respectively. Total protein bands of exosomes were shown by Coomassie blue staining (middle penal). The right panel represents the mean and standard deviation of three experiments. […] THP-1 cells were treated with or without PMA and/or LPS in serum-free medium for 18 h. […]
as §1

MCF-7 cells [2] = assay: Exosome-associated ADAM15 release from MCF-7 cells (sequential centrifugation, immunoblotting); conditions: 5 ng/Ml PMA for 24 h; 100,000×g pellet
Procedure: FIG. 2 verifies that released ADAM15 is associated with exosomes, and exosome-mediated ADAM15 is secreted by PMA-stimulated PKC activation. […] Conditioned medium of MCF-7 cells treated with or without 5 ng/Ml PMA for 24 h was subjected to sequential centrifugation as follows: 300×g (P1), 1,200×g (P2), 10,000×g (P3), 100,000×g (P4), and 100,000×g after filtering through a 0.22-μm pore size filter (P4′). Pellets from each stage were subjected to western blotting analysis using an anti-ADAM15 cytoplasmic domain antibody. Arrows indicate pro-ADAM15 (P) and mature ADAM15 (M), respectively. […] After ultracentrifugation at 100,000×g, the pellets were analyzed by immunoblotting with antibody to ADAM15 cytoplasmic domain. […] Isolated exosomes were analyzed by immunoblotting with ADAM15 antibody. […] The percent changes in fluorescence intensity associated with the presence of ADAM15 are shown.
as §1

MCF-7 cells [3] = assay: Flow cytometric analysis of cell- and exosomal-surface expression of ADAM15; conditions: flow cytometry; 5 ng/Ml PMA for 24 h
Procedure: FIG. 2 verifies that released ADAM15 is associated with exosomes, and exosome-mediated ADAM15 is secreted by PMA-stimulated PKC activation. […] Conditioned medium of MCF-7 cells treated with or without 5 ng/Ml PMA for 24 h was subjected to sequential centrifugation as follows: 300×g (P1), 1,200×g (P2), 10,000×g (P3), 100,000×g (P4), and 100,000×g after filtering through a 0.22-μm pore size filter (P4′). Pellets from each stage were subjected to western blotting analysis using an anti-ADAM15 cytoplasmic domain antibody. Arrows indicate pro-ADAM15 (P) and mature ADAM15 (M), respectively. […] Isolated microvesicles from conditioned medium of MCF-7 cells treated with 5 ng/Ml PMA were subjected to sucrose gradient centrifugation. Each fraction was concentrated prior to SDS-PAGE. […] After ultracentrifugation at 100,000×g, the pellets were analyzed by immunoblotting with antibody to ADAM15 cytoplasmic domain. […] Isolated exosomes were analyzed by immunoblotting with ADAM15 antibody. […] The percent changes in fluorescence intensity associated with the presence of ADAM15 are shown.
Flow cytometric analysis of exosomes was performed as previously described with minor modifications (Thery et al., 2001). […] Flow cytometry was performed on a FACSCalibur (BD Biosciences), and data were analyzed using WinMDI software version 2.8 (The Scripps Research Institute, La Jolla, Calif.).

MCF-7 cells [4] = assay: ADAM15 release from MCF-7 cells into conditioned medium and levels in cell lysates (western blotting)
Procedure: FIG. 1 verifies that ADAM15 is released into the extracellular space. […] MCF-7 cells were incubated with 5 ng/Ml PMA in serum-free RPMI 1640 medium. P indicates pro-ADAM15 and M indicates mature ADAM15. In the results of the lower panel, data are represented as the mean±standard deviation of four experiments. *P<0.01; Student's t test. […] Cells were treated as described in the drawing. Arrows indicate pro-ADAM15 (P) and mature ADAM15 (M), respectively.
Cells were lysed in buffer containing 50 Mm Tris-HCl, pH 7.5, 5 mM EDTA, 150 mM NaCl, 1% Triton X-100, and protease inhibitor cocktail (Roche Applied Science, Indianapolis, Ind.) for 1 h at 4° C. and then centrifuged. The soluble portion of the lysate was used for western blotting, which was performed by separation of reduced or non-reduced samples on SDS-PAGE, followed by electroblotting to nitrocellulose membranes and detection of bound antibody by enhanced chemiluminescence (Amersham Biosciences, Pittsburgh, Pa.).
There are several studies showing that various membrane proteins are secreted into the extracellular space through ectodomain shedding or microvesicle release (van Kilsdonk et al., 2010). Here, we examined whether ADAM15 protein is released from human breast cancer MCF-7 cells into conditioned medium. Mature ADAM15 was detected in the conditioned medium by immunoblotting analysis with an antibody against ADAM15 extracellular domain (FIG. 1A). […] In MCF-7 cells, both the pro and mature forms of ADAM15 were detected. […] The mRNA levels of ADAM15 after PMA stimulation were also assessed. […] We further investigated whether released ADAM15 was generated by ectodomain shedding.

MDAH-2774 cells = assay: Effect of PKC inhibitor on secretion of exosome-associated ADAM15; conditions: PMA and indicated concentrations of calphostin C for 24 h
THP-1 macrophages = assay: Release of exosomal ADAM15 from differentiated THP-1 macrophages; conditions: THP-1 macrophages incubated with LPS in serum-free medium for 18 h
Procedure: as §2, §1

In the case of CCCCCCCCCCCCCC(=O)O[C@@H]1[C@@H](C)[C@@]2(O)[C@@H](C=C(CO)C[C@]3(O)C(=O)C(C)=C[C@@H]23)[C@@H]2C(C)(C)[C@]12OC(C)=O [PMA, phorbol 12-myristate 13-acetate], the “exosomal ADAM15 in exosomes of ADAM15-transfected cells” value (HEK293F cells) is reported as “further exosomal enrichment”, the “ADAM15 mRNA levels” value (MCF-7 cells [1]) is reported as “unchanged” and the “release of exosomal ADAM15” value (THP-1 cells) is reported as “effectively increased”. The “amount of exosomal ADAM15” value (MCF-7 cells [2]) was “increased”, the “exosomal-surface ADAM15” value (MCF-7 cells [3]) was “increase” and the “plasma membrane-associated ADAM15” value (MCF-7 cells [3]) was “decrease”. The “ADAM15 release into conditioned medium” value (MCF-7 cells [4]; 5 ng/Ml PMA, serum-free RPMI 1640, antibody against ADAM15 extracellular domain) was “largely increased”, the “other membrane proteins ADAM10 and E-cadherin in cells” value (MCF-7 cells [4]; cell lysates after PMA stimulation) was “unchanged” and the “pro and mature forms of ADAM15 in cells” value (MCF-7 cells [4]; cell lysates, time after PMA stimulation, barely detectable after 24 hrs) was “decreased with time”.
With calphostin C the “PMA-stimulated ADAM15 release” value (MDAH-2774 cells) was “successfully blocked”.
In the case of lipopolysaccharide [LPS], the “release of exosomal ADAM15” value (THP-1 macrophages) is reported as “enhanced”.
